Reference: patent US11213494B2 (priority 2016, dated 2022)

What was measured:
[1] = system: AMPA-receptors; assay: Whole-cell patch-clamp recordings of nTS second-order neurons in brainstem slices; type: cell-based, mice; details: 10 μM in the superfusate
Experimental: Horizontal brainstem slices were prepared from 3- and 5- to 7-week-old Mecp2 Null and Wt male mice. Animals were deeply anesthetized by inhalation of isoflurane and then decapitated. Brains were removed from the skull and placed in low Ca2+, ice-cold artificial CSF (ACSF) containing the following (in mM): 125 NaCl, 3 KCl, 1.2 NaH2PO4, 1 CaCl2, 1.2 MgSO4, 2 MgCl2, 25 NaHCO3, 10 D-glucose, and 0.4 L-ascorbic acid, equilibrated to pH 7.4 with 95% O2/5% CO2, for 2-5 min. […]
Slices were placed into the recording chamber, held in place with nylon-wired grid and superfused with recording ACSF at 30-32° C. at a flow rate of 4-5 ml/min. […] Evoked, spontaneous and miniature EPSCs (eEPSCs, sPSCs, mEPSCs) were recorded from cells meeting this criterion in the whole-cell voltage-clamp configuration at a holding potential of −60 mV. […] To compare intrinsic neuronal excitability between genotypes, action-potential properties and firing frequency in response to current injection (50 pA increments) were recorded in nComm neurons as well. […]
Spontaneous and evoked postsynaptic currents were analyzed with Clampfit and Microsoft Excel. In the analysis of eEPSCs, 20 sweeps were averaged with Clampfit and the resulting eEPSC amplitudes were measured and compared between genotypes at different stimulation intensities. […]

[2] = system: TrkB; assay: TrkB, AKT and ERK phosphorylation assays (Western blot) in pons and medulla; type: in vivo, mice; details: 50 mg/kg i.p. b.i.d. for 5 weeks
Experimental: The ratios of (1) phospho-TrkB^Y817/TrkB (full-length), phospho-ERK/ERK and phospho-AKT/AKT, (2) phospho-TrkB^Y817/actin, phospho-ERK/actin and phospho-AKT/actin, (3) TrkB (full-length)/actin, ERK/actin and AKT/actin and (4) TrkB (truncated)/actin were measured by Western blot using the ECL Chemiluminescence System (GE Healthcare). Site-specific rabbit monoclonal antiphospho-TrkB^Y817 antibody was obtained from Epitomics and rabbit polyclonal TrkB antibody was obtained from Millipore. Rabbit polyclonal ERK and AKT, mouse monoclonal phospho-ERK and phospho-AKT antibodies were obtained from Cell Signaling Technology. Tissues were homogenized in a lysis buffer (containing, in mM: 20 Tris, pH 8.0, 137 NaCl, 1% Igepal CA-630, 10% glycerol, 1 PMSF, 10 μg/ml aprotinin, 1 μg/ml leupeptin, 500 μM orthovanadate). Lysates were centrifuged at 14,000×g for 10 min, then the supernatant was collected and protein concentration was determined using the BCA Protein Assay Reagent (Pierce).
(§1) Respiratory patterns were analyzed at 8, 10, and 12 weeks after birth in unrestrained mice using whole-body plethysmography as described previously. Measurements were taken from quiet breathing periods of at least 5 min total duration, and apneas were defined as pauses in breathing greater than two times the average breath duration calculated for each animal. LM22A-4 treatment. Wt and Het littermates were divided into 4 groups: Wt vehicle-treated (100 μl of 0.9% NaCl, i.p., b.i.d.), Wt drug treated (50 mg/kg LM22A-4 in 0.9% NaCl, i.p., b.i.d.), Het vehicle-treated (100 μl of 0.9% NaCl, i.p., b.i.d.), and Het drug-treated (50 mg/kg LM22A-4 in 0.9% NaCl, i.p., b.i.d.). Each mouse was treated from 8 to 13 weeks of age. Whole-body plethysmography was performed during week 12 and animals were subsequently killed and tissues harvested for TrkB Western blots and BDNF ELISA during week 13.

[3] = system: TrkB; assay: Synaptic hyperexcitability in brainstem respiratory and autonomic circuits and apneic breathing in RTT mice; type: in vivo; details: for synaptic hyperexcitability in brainstem respiratory and autonomic circuits: acute
[4] = system: Mecp2 Het mice; type: in vivo; details: 50 mg/kg i.p. twice daily for 4 weeks
Experimental: as §1
Comparison of respiratory parameters between Wt and Het animals in the initial phenotyping experiments were performed using unpaired Student's t test. Comparisons among Wt vehicle-treated, Wt drug-treated, Het vehicle-treated, and Het drug-treated groups in the LM22A-4 trials, including plethysmography and Western blots were performed using one-way ANOVA with post hoc Least Significant Difference test (LSD) for intergroup comparisons. Results were considered significant if the p-value was <0.05. Data are presented as the mean±SEM.

[5] = in vivo; set-up: species or system mice; details: Mecp2^tm1.1Jae heterozygous (Het), mouse, ip, 50 mg/kg, brain tissue concentration (corrected for blood contamination)
Experimental: The brain concentration of LM22A-4 (custom synthesized by Ricerca Biosciences, LLC) was evaluated in Het mice 1 h after a 50 mg/kg intraperitoneal dose using reverse-phase liquid chromatography with triple-quadrupole tandem mass spectrometric (LC-MS/MS) detection. […] Brainstem and forebrain samples were homogenized with a Virsonic 100 ultrasonic homogenizer and prepared for analysis using acetonitrile precipitation by combining one volume of sample with three volumes of acetonitrile. Samples were centrifuged and the resulting supernatant was sampled for analysis using a CTC Leap PAL autosampler (Leap Technologies) and two PerkinElmer series 200 micro pumps. Chromatography was performed at ambient temperature using a 50×2.0 mm inner diameter, 4 μm Synergi Polar-RP analytical column (Phenomenex). The aqueous mobile phase (A) was 4 mM ammonium formate, pH 3.5 and the organic mobile phase (B) was 10:90 (v/v) […] ammonium formate, pH 3.5/acetonitrile. The analyte was eluted with a gradient which changed linearly from 0 to 100% B in 3 min at a flow rate of 300 μl/min. The total run time was 4.5 min and the injection volume was 10 μl. The analyte was detected on a Sciex API 3000 triple-quadrupole mass spectrometer equipped with a TurbolonSpray interface in the positive electrospray ionization mode (Applied Biosystems/MDS). […]

[6] = Body weight and tolerability during LM22A-4 treatment; type: in vivo, mice
Experimental: as §1

Row | Molecule | effect on sPSCs [1] | reduction of eEPSC amplitudes ([1]; n=10) [%] | deficits in TrkB phosphorylation (p-TrkBY817/TrkB, p-TrkBY817/actin) ([2]; pons and medulla, 13-week-old Het mice) | decreases in p-AKT/AKT and p-AKT/actin ([2]; pons, Het mice) | effect of drug treatment on level of p-ERK/ERK ([2]; pons, Wt and Het mice) | levels of p-TrkB/TrkB and p-TrkB/actin vs wild-type controls ([2]; pons, drug-treated Het mice) | apneic breathing in vivo [3] | synaptic hyperexcitability in brainstem respiratory and autonomic circuits [3] | percentage of apneic animals [4] | Te (expiratory time) compared with Wt ([4]; 12-week-old Het mice) | Ttot (total breath duration) compared with Wt ([4]; 12-week-old Het mice) | breathing frequency compared with Wt ([4]; 12-week-old Het mice) | respiratory function, drug- vs vehicle-treated Wt mice ([4]; Wt mice) | concentration at 1 h ([5]; brainstem) [nM] | concentration at 1 h ([5]; forebrain) [nM] | effect on body weight ([6]; Wt or Het mice, 50 mg/kg i.p. b.i.d. throughout the treatment period) | tolerability of daily treatment ([6]; heterozygous female Mecp2 mutant mice)
1 | N#Cc1cc2c(cc1[N+](=O)[O-])=NC(=O)C(=O)N=2 [6-cyano-7-nitroquinoxaline-2,3-dione] | completely abolished | 92.2±1.4 | – | – | – | – | – | – | – | – | – | – | – | – | – | – | –
2 | O=C(NCCO)c1cc(C(=O)NCCO)cc(C(=O)NCCO)c1 [LM22A-4, N,N′,N″Tris(2-hydroxyethyl)-1,3,5-benzenetricarboxamide] | – | – | completely reversed | reversed | no significant effect | significantly higher | eliminate | acutely reverse | unaffected | not significantly different | not significantly different | not significantly different | no significant differences | 2.9 | 4.1 | no effect | well tolerated
3 | BDNF: exogenous brain-derived neurotrophic factor, secreted protein, ligand of TrkB (protein, UniProt P23560 19-247, looked up) Neurotrophic factor BDNF …: APMKEANIRGQGGLAYPGVRTHGTLESVNGPKAGSRGLTSLADTFEHVIEELLDEDQKVRPNEENNKDADLYTSRVMLSSQVPLEPPLLFLLEEYKNYLDAANMSMRVRRHSDPARRGELSVCDSISEWVTAADKKTAVDMSGGTVTVLEKVPVSKGQLKQYFYETKCNPMGYTKEGCRGIDKRHWNSQCRTTQSYVRALTMDSKKRIGWRFIRIDTSCVCTLTIKRGR | – | – | – | – | – | – | eliminate | acutely reverse | – | – | – | – | – | – | – | – | –
